In US9850276B2, “Bidentate-binding modulators of LRRK2 and JNK kinases” (THE SCRIPPS RESEARCH INSTITUTE, priority 2013, dated 2017):
Values joined by “and” are separate entries in the source; they are usually repeats but may differ in a detail not shown here. Equal entries are not always repeated. Where two headings read alike, the source gives them in different places. Where a SMILES comes first, the peptide text is derived from it. The star is where a group is joined. X1 = O=C(NCCCCN*)c1ccc(-c2n[nH]c3ccccc23)cc1; X2 = O=C(NCCCN*)c1ccc(-c2n[nH]c3ccccc23)cc1

Key:
JNK3 = JNK3 (Homo sapiens, UniProt P53779); assay: JNK3 enzyme activity assay; assay type: biochemical; settings: 2-3 determinations; SP600125 from 10 measurements; * n = 2-4
JNK3 39-422 = target: T1, JNK3 39-422 (Homo sapiens, UniProt P53779); assay: JIP FP displacement assay (TAMRA-JIP-11-mer peptide, fluorescence polarization); assay type: binding; settings: 2-3 determinations; * n = 2-4
T1 construct: with JNK3 39-422 and measuring fluorescence polarization (FP) changes
Excerpt: The biochemical assay for JIP displacement is centered on utilizing a TAMRA-JIP-11-mer peptide (TAMRA-RPKRPTTLNLF) with JNK3 39-422 and measuring fluorescence polarization (FP) changes in the presence and absence of small molecule inhibitors. This assay has been established in 96-well and 384-well format in our labs. Unlabeled JIP-peptide (RPKRPTTLNLF, SEQ ID:1) and compound 2 were used as positive controls.

[1] = test system: c-jun phosphorylation in H9C2 cardiomyocyte cells; assay: In-cell Western detection of c-Jun phosphorylation; assay type: cell-based; settings: for IC50: n = 4, read-out: Cell-based p-c-Jun inhibition (IC50)
Procedure: The IC50 was calculated to be 2.8±0.5 μM. Standard error is given.
(§1) To analyze the cell activity of compound 6 and its analogs an In-cell Western detection assay was set up where phosphorylation of c-Jun was monitored. […] This finding was corroborated by Western blot analysis in H9C2 and N2a cells (FIG. 7). Considering the reasonably high biochemical kinase selectivity (coupled with its low μM cell potency), compound 6 is believed to be a good in vitro probe molecule for studying the biology and the signal pathways related to JNK/LRRK2 (and mutant LRRK2s).
Table 2, above, presents the inhibition of c-Jun phosphorylation in H9c2 cells for six JNK bidentate inhibitors, compounds 5, 6, 9, 10, 12, and 13.

JNK1 = JNK1 (Homo sapiens, UniProt P45983); assay: JNK1 enzyme assay; assay type: biochemical; settings: 2-3 determinations; SP600125 from 10 measurements
[2] = test system: infarct size in rat hearts; assay: I/R MI rat model, 30 minutes ischemia and 24 hours reperfusion; assay type: in vivo; settings: 40 mg/kg 3-aminobenzamide; p=0.048
Procedure: The in vivo efficacy of SR-3306 in anesthetized rats after 30 minutes ischemia and 24 hours reperfusion was evaluated.

wild-type LRRK2 = wild-type LRRK2 (Homo sapiens, UniProt Q5S007); assay: LRRK2 enzyme assay (titration); assay type: biochemical
Excerpt: (§2) Strong inhibition of LRRK2 by compound 6 was also found.

LRRK2-G2019S = LRRK2-G2019S (Homo sapiens, UniProt Q5S007, G2019S); assay: LRRK2-G2019S enzyme assay (titration); assay type: biochemical
Excerpt: as §2

[3] = test system: SHSY5Y cells transfected with LRRK2:G2019S; assay: LRRK2:G2019S-induced ROS generation (Mitosox fluorescence); assay type: cell-based, human; settings: 1 μM or 10 μM compound; p<0.05
Excerpt: (§3) FIGS. 5A, 5B, and 5C, depict the results of assays to determine the protection of LRRK2:G2019S-induced mitochondrial dysfunction and cell death by compound 6. Significance between LRRK2:WT and LRRK2:G2019S are indicated by a single asterisk (p<0.05) (*), while differences between cells expressing LRRK2:G2019S and compound 6 treated cells expressing LRRK2:G2019S are indicated by a double asterisk (p<0.05) (**). Error bars denote standard deviation.
(§4) We next tested if compound 6 was potent in cell-based functional assays that measured reactive oxygen species (ROS) generation, mitochondrial membrane potential (MMP), and cell viability. We had previously shown that JNK inhibition had significant effects on all of these mitochondrial functional parameters in HeLa cells. FIG. 5 presents the effects that compound 6 had on all of these measures in the human dopaminergic SHSY5Y cell line. […] Finally, LRRK2:G2019S-induced cell loss was measured showing ˜50% less viable cells (FIG. 5C). In the presence of 10 μM compound 6, cell viability returned to >95% (p<0.05).

[4] = test system: c-jun phosphorylation in H9C2 and N2a cells; assay: Western blot analysis of c-jun phosphorylation; assay type: cell-based
Excerpt: as §1

CLK1 = CLK1 (Homo sapiens, UniProt P49759); assay: Enzyme inhibition profiling, panel of 21 kinases; assay type: biochemical
JNKs = assay: Enzyme inhibition profiling, panel of 21 kinases; assay type: biochemical; settings: 10 μM inhibitor concentration
JNK3α1 = JNK3α1 (Homo sapiens, UniProt P53779); assay: ATP competitive binding / mechanism of inhibition studies; assay type: biochemical; settings: eight concentrations of compound; p<0.05
Excerpt: (A) Non-linear least squares fitting of the data using an equation for competitive inhibition at eight concentrations of compound 6. (B) Double reciprocal plots and linear regression of the data shown in A.
The detection method in the JNK3 enzyme assay allows for the detection of a compound that inhibits by a variety of mechanisms including: substrate-site binding, allosteric site binding, and ATP-competitive binding. […] However, if the inhibition of kinase activity by 6 was only through substrate site binding, its IC50 value in JNK3 activity assay should be similar to that in JIP displacement assay. […] One possible interaction besides JIP site binding was ATP hinge binding because the head indazole moiety is a well-known hinge binder.

[5] = test system: SHSY5Y cells transfected with LRRK2:G2019S; assay: LRRK2:G2019S-induced cell loss (cell viability); assay type: cell-based; settings: Homo sapiens, SH-SY5Y; 10 μM compound; p<0.05
Excerpt: as §3, §4

[6] = test system: SHSY5Y cells transfected with LRRK2:G2019S; assay: LRRK2:G2019S-induced decrease in mitochondrial membrane potential; assay type: cell-based, human; settings: 10 μM compound
Excerpt: as §3, §4

LRRK2 = LRRK2 (Homo sapiens, UniProt Q5S007); assay: Enzyme inhibition profiling, panel of 21 kinases; assay type: biochemical; settings: 10 μM inhibitor concentration
96 kinases = assay: Ambit binding screen; settings: 10 μM
Procedure: To augment this we screened an additional 96 kinases at 10 μM in the Ambit binding screen to get a broader sense for the selectivity of this compound. […] Since minimal SAR optimizations have been made on this probe molecule it is believed that high selectivity for this class of inhibitors could easily be achieved by exploiting the bidentate binding character of this class.

[7] = Rattus norvegicus, H9c2, H9c2 cells

Chain of JNK3 (P53779 1-422 isoform P53779-2): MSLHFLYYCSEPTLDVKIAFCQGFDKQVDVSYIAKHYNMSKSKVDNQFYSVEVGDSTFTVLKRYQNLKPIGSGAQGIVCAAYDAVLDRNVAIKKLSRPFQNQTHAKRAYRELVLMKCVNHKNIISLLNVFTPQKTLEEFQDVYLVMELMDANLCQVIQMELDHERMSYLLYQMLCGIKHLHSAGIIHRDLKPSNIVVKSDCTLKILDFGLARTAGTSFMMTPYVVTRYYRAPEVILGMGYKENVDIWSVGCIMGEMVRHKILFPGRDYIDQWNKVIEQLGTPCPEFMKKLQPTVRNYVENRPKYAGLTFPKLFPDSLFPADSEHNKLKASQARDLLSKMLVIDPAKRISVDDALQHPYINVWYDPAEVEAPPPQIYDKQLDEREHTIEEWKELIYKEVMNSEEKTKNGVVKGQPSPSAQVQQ
T1 sequence (P53779 39-422 isoform P53779-2): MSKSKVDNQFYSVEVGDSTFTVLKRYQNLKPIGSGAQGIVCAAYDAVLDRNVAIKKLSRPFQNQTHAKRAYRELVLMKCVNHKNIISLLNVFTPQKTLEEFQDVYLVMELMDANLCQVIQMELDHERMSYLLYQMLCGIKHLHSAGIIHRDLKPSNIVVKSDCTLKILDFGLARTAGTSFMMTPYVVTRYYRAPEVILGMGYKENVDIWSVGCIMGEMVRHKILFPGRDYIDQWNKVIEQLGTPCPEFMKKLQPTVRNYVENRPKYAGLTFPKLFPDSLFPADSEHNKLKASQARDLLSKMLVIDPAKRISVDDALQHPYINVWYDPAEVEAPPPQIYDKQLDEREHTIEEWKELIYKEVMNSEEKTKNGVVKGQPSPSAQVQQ
Chain of wild-type LRRK2 (Q5S007 whole entry): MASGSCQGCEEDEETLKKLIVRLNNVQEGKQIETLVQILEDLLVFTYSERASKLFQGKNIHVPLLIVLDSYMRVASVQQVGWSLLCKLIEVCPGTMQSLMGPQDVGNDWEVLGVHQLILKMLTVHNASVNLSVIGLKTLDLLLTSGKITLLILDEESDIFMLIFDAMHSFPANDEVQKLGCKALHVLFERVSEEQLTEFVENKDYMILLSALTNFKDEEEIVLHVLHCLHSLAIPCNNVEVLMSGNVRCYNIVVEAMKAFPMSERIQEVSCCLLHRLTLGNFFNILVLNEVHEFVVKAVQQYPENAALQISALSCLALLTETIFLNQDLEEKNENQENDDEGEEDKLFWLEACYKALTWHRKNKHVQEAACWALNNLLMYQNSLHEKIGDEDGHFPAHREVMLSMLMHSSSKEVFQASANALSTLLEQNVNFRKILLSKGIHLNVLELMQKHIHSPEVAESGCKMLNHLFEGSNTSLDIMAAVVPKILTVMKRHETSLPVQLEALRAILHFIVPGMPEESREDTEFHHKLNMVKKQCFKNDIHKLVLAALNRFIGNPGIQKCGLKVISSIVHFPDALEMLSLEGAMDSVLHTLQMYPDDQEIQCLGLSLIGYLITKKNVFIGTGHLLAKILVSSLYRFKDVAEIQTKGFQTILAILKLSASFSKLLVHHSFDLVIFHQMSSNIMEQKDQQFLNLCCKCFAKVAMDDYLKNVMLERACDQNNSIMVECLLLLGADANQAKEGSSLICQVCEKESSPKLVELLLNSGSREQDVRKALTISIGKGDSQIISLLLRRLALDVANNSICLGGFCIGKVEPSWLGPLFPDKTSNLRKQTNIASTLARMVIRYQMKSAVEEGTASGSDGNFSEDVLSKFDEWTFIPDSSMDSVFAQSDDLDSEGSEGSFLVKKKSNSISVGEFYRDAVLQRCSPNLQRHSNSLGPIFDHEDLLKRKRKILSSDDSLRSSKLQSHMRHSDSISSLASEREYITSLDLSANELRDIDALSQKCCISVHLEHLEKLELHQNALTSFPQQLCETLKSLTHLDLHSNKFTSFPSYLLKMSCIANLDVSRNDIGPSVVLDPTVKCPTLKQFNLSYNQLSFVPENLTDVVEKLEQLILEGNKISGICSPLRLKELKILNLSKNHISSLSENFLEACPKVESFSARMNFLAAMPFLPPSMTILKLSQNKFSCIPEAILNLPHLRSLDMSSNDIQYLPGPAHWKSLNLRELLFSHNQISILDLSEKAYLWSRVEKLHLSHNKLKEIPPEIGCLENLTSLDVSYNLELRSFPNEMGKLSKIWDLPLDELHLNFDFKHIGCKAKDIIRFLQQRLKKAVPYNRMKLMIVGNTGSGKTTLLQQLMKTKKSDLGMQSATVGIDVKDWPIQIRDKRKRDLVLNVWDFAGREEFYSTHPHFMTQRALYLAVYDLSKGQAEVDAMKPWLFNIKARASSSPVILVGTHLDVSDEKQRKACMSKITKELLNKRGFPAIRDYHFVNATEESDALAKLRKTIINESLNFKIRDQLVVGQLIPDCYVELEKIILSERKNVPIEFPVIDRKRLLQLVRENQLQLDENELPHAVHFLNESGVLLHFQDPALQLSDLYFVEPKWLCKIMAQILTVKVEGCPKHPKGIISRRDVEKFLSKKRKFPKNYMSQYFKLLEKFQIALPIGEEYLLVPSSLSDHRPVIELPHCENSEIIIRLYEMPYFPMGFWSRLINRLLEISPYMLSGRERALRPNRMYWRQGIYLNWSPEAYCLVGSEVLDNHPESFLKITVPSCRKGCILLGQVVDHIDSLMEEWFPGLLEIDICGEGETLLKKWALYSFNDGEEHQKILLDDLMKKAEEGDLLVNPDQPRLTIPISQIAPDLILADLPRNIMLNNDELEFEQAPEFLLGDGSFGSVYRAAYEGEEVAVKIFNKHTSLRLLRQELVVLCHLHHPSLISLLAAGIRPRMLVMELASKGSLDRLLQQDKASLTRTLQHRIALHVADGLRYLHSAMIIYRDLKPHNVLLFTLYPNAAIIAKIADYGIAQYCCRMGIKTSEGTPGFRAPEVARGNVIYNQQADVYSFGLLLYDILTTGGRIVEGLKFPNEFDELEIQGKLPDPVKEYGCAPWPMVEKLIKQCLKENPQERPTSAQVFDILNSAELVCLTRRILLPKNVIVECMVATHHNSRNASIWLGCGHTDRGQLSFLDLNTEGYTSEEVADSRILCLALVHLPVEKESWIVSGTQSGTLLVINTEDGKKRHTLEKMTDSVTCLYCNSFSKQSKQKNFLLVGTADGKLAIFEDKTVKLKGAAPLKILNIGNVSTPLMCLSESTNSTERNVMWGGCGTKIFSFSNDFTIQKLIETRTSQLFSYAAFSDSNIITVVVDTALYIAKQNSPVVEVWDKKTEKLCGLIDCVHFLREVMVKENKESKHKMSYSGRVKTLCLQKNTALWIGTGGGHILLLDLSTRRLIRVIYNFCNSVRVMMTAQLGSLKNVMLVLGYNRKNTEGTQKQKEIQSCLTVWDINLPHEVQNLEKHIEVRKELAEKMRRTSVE
Chain of JNK1 (P45983 whole entry, the tested form may be a part): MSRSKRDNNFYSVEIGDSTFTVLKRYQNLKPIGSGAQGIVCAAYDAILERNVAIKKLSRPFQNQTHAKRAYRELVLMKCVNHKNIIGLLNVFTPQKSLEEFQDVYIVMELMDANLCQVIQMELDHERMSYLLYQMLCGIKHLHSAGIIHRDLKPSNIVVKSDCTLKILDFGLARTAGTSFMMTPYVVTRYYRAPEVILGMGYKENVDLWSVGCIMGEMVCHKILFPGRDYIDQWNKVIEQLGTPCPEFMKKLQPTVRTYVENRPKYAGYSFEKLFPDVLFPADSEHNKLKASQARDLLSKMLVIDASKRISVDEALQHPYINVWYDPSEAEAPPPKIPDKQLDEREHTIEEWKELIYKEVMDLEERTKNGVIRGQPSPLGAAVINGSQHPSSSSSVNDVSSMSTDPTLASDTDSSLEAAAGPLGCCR
Chain of LRRK2-G2019S (Q5S007 whole entry G2019S): as the sequence (Q5S007 whole entry) above, with G2019S counted along it
Chain of CLK1 (P49759 whole entry): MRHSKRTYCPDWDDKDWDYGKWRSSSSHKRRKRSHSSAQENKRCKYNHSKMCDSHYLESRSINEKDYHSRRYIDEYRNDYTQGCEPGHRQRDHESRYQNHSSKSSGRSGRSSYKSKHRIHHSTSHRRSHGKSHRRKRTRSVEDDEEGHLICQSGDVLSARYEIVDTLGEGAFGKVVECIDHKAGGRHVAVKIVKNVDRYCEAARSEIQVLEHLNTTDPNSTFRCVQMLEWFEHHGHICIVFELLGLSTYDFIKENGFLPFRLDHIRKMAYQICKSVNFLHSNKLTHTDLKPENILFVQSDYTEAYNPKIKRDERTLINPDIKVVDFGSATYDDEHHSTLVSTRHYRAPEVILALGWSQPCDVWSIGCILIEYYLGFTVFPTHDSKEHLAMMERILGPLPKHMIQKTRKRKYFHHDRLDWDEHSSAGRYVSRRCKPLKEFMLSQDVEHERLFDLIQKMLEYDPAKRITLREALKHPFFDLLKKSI
Chain of JNK3α1 (P53779 1-422 isoform P53779-2): as the sequence (P53779 1-422 isoform P53779-2) above
Chain of LRRK2 (Q5S007 whole entry): as the sequence (Q5S007 whole entry) above

Row | Structure (SMILES) | IC50 (JNK3) | IC50 (JNK3 39-422) | IC50 (JNK1) | IC50 [1, 7] | also measured
1 | CC(C)C[C@H](NC(=O)[C@H](CC(N)=O)NC(=O)[C@@H](N)CC(C)C)C(=O)NCC(=O)NCC(=O)NCCCNC(=O)c1ccc(-c2n[nH]c3ccccc23)cc1 [Compound 2] (H-LNLGG-X2) | 0.136 ± 0.0359 µM | 0.624 µM | – | – | –
2 | CC(=O)N[C@@H](CC(C)C)C(=O)N[C@@H](CC(N)=O)C(=O)N[C@@H](CC(C)C)C(=O)NCC(=O)NCC(=O)NCCCNC(=O)c1ccc(-c2n[nH]c3ccccc23)cc1 [Compound 1] (Ac-LNLGG-X2) | 0.0378 ± 0.0118 µM | 0.76 µM | – | – | –
3 | NC(=O)c1cccc(N)c1 [3-aminobenzamide] | – | – | – | – | infarct size (IS) [2]: 26±1.5 % of AAR
4 | CC(C)CN(CC(=O)NCCCCCCNC(=O)c1ccc(-c2n[nH]c3ccccc23)cc1)C(=O)CNC(=O)c1ccc2c(c1)OCCO2 [Compound 4, N-(2-((2-((6-(4-(1H-indazol-3-yl)benzamido)hexyl)amino)-2-oxoethyl)(isobutyl)amino)-2-oxoethyl)-2,3-dihydrobenzo[b][1,4]dioxine-6-carboxamide] | 0.147 ± 0.0516 µM | 0.907 µM | 0.685 ± 0.121 µM | – | –
5 | COc1ccc2c(c1)CC(C(=O)NCC(=O)N(CC(=O)NCCCCCCNC(=O)c1ccc(-c3n[nH]c4ccccc34)cc1)CC(C)C)CO2 (centres unmarked) [Compound 6, N-(2-((2-((6-(4-(1H-indazol-3-yl)benzamido)hexyl)amino)-2-oxoethyl)(isobutyl)amino)-2-oxoethyl)-6-methoxychroman-3-carboxamide] | 0.012 µM and 0.0116 µM | 0.336 µM and ~0.336 µM | 0.109 ± 0.0061 µM | 2.8 ± 0.5 µM | IC50 (LRRK2-G2019S): 0.099 µM and ~0.1 µM; ROS levels [3]: reduced the ROS levels in a statistically significant manner; c-jun phosphorylation by Western blot [4]: inhibition of the c-jun phorphorylation; inhibition at 10 µM (CLK1; 10 μM inhibitor concentration): 50%; IC50 (CLK1; inferred from 50% inhibition at 10 μM): ~10 µM; inhibition of JNKs (JNKs): ~100%; IC50 (wild-type LRRK2; read-out: wild-type LRRK2 IC50): 0.118 µM and ~0.1 µM; mechanism of inhibition versus ATP (JNK3α1): competitive inhibitor of ATP; viability at 10 µM [5]: > 95%; concentration from which c-Jun phosphorylation began to be inhibited significantly ([1]; H9C2 cells): ~100 nM; protection against decrease in MMP [6]: returned MMP dissipation to untreated levels; inhibition at 10 µM (LRRK2): 94%; number of the 96 kinases with greater than 90% binding (96 kinases): six; share of kinases inhibited (96 kinases): ~5%
6 | CC(=O)N[C@@H](CC(C)C)C(=O)N[C@@H](CC(N)=O)C(=O)N[C@@H](CC(C)C)C(=O)NCC(=O)NCCCCNC(=O)c1ccc(-c2n[nH]c3ccccc23)cc1 [Compound 3, (S)—N1-((S)-1-((2-((4-(4-(1H-indazol-3-yl)benzamido)butyl)amino)-2-oxoethyl)amino)-4-methyl-1-oxopentan-2-yl)-2-((S)-2-acetamido-4-methylpentanamido)succinamide] (Ac-LNLG-X1) | 0.157 ± 0.162 µM | 0.62 µM | 0.318 ± 0.0119 µM | – | –
7 | CC(C)CN(CC(=O)NCCCCCCNC(=O)c1ccc(-c2n[nH]c3ccccc23)cc1)C(=O)CNC(=O)C1COc2ccccc2O1 (centres unmarked) [Compound 5, N-(2-((2-((6-(4-(1H-indazol-3-yl)benzamido)hexyl)amino)-2-oxoethyl)(isobutyl)amino)-2-oxoethyl)-2,3-dihydrobenzo[b][1,4]dioxine-2-carboxamide] | 0.0634 ± 0.0104 µM | 0.363 µM | 0.164 ± 0.0217 µM | 37.4 ± 22.3 µM | –

More lines, main results first:

Row | IC50 (JNK3) | IC50 (JNK3 39-422) | IC50 (JNK1) | Structure (SMILES) | IC50 [1, 7] | also measured
8 | 0.086 ± 0.037 µM | 0.781 ± 0.007 µM | – | CC(C)CN(CCCCCCNC(=O)c1ccc(-c2n[nH]c3ccccc23)cc1)C(=O)c1ccc2c(c1)OCCO2 [Compound 11] | – | –
9 | 0.184 ± 0.038 µM | 0.52 ± 0.17 µM | – | CC(C)CN(CC(=O)NCCCCNC(=O)c1ccc(-c2n[nH]c3ccccc23)cc1)C(=O)CNC(=O)c1cccc(Cl)c1 [Compound 12] | 19.8 ± 7.8 µM | –
10 | 0.246 ± 0.227 µM | 0.3 ± 0.187 µM | – | COc1ccc2c(c1)CC(C(=O)N(CC(=O)NCCCCNC(=O)c1ccc(-c3n[nH]c4ccccc34)cc1)CC(C)C)CO2 (centres unmarked) [Compound 9] | 80.4 ± 41.4 µM | –
11 | 0.127 ± 0.0303 µM | 1.05 µM | 0.154 ± 0.0371 µM | COc1ccc2c(c1)CC(C(=O)N[C@@H](C)C(=O)N(CC(=O)NCCCCCCNC(=O)c1ccc(-c3n[nH]c4ccccc34)cc1)CC(C)C)CO2 (stereo partly drawn) [Compound 7, N—((S)-1-((2-((6-(4-(1H-indazol-3-yl)benzamido)hexyl)amino)-2-oxoethyl)(isobutyl)amino)-1-oxopropan-2-yl)-6-methoxychroman-3-carboxamide] | – | –
12 | 0.374 ± 0.227 µM | 1.73 ± 0.635 µM | – | CC(C)CN(CC(=O)NCCCCNC(=O)c1ccc(-c2n[nH]c3ccccc23)cc1)CC(C)C [Compound 13] | 9.6 ± 3 µM | –
13 | 0.065 µM | 0.363 ± 0.272 µM | – | CC(C)CN(CC(=O)NCCCCNC(=O)c1ccc(-c2n[nH]c3ccccc23)cc1)C(=O)c1ccc2c(c1)OCCO2 [Compound 10] | ~1 µM | IC50 (wild-type LRRK2; LRRK2 form not stated, only hit in profiling against 18 kinases at 10 μM, read-out: LRRK2 IC50): 0.08 µM; IC50 ([1]; H9c2 cells): 1.4 ± 0.34 µM
14 | 3.15 µM | – | – | COc1ccc2c(c1)CC(C(=O)NCC(=O)N(CC(=O)NCCCCCCNC(=O)c1ccc3[nH]ncc3c1)CC(C)C)CO2 (centres unmarked) [Compound 8, N-(6-(2-(N-isobutyl-2-(6-methoxychroman-3-carboxamido)acetamido)acetamido)hexyl)-1H-indazole-5-carboxamide] | – | –
